This passage reports IC50 and GI50 results from patent US10125118B2, “Heteroaryl compounds and their use as therapeutic drugs” (Dong-A Socio Holdings Co., Ltd., priority 2015, dated 2018).

Test [1] concerns the target human c-MER catalytic domain (Homo sapiens (Human), UniProt Q12866). As to the kind of experiment: LanthaScreen TR-FRET kinase assay, c-MER. The settings on record: read-out: Mer TK inhibition (IC50); Biochemical IC50, TR-FRET, 10 uM ATP. (TR-FRET usually uses a lanthanide donor and a delayed reading to cut background.)
Test [2] has as its system CD8-MerTK in Ba/F3-CDM cells. As to the kind of experiment: In cell MER kinase assay, Ba/F3-CDM cell proliferation without IL-3 (Celltiter-Glo). It counts as cell-based, murine. The conditions noted are these: 48 hours compound treatment, read-out: Cell growth inhibition (GI50). A digest of the protocol: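 Ba/F3 cells, IL-3-dependent, transfected with CD8-MerTK and grown without IL-3 in DMEM/10% FBS. IL-3-supplemented Ba/F3 cells run in parallel as a cytotoxicity control.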

human c-MER catalytic domain, sequence (Q12866 587-858): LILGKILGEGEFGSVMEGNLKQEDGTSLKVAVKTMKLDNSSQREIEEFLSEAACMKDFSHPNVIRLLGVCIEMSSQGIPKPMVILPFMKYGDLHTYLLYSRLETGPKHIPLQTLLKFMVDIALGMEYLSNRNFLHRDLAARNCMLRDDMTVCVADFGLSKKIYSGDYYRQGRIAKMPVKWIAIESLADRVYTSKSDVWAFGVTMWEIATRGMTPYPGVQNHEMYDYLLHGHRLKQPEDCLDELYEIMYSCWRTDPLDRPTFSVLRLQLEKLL

A word on the IC50: it is the midpoint of a concentration-inhibition curve. The GI50 is the concentration that inhibits growth by half. Regarding `CN1CCN(Cc2ccc(-c3ccc(CO[C@H]4CCC[C@@H]4NC(=O)c4cc(-c5ccc(CN6CCOCC6)cc5)cnc4N)cc3)cc2)CC1` [Example 379, 2-amino-N-((1S,2S)-2-((4′-((4-methylpiperazin-1-yl)methyl)-[1,1′-biphenyl]-4-yl)methoxy)cyclopentyl)-5-(4-(morpholinomethyl)phenyl)nicotinamide], in test [1], the IC50 was below 10 nM. For the same compound, in test [2], the GI50 was below 100 nM.
Consider `CN1CCC(Oc2ccc(-c3ccc(CO[C@H]4CCC[C@@H]4NC(=O)c4cc(-c5cnn(C)c5)cnc4N)cc3)cc2)CC1` [Example 247, 2-amino-5-(1-methyl-1H-pyrazol-4-yl)-N-((1S,2S)-2-((4′-((1-methylpiperidin-4-yl)oxy)-[1,1′-biphenyl]-4-yl)methoxy)cyclopentyl)nicotinamide], for which the IC50 in test [1] is below 10 nM. Further, the GI50 in test [2] lay within 100 to 500 nM.
As for `CN1CCN(Cc2ccc(-c3ccc(CO[C@H]4CCC[C@@H]4NC(=O)c4cc(-c5cnn(C)c5)cnc4N)cc3)cc2C(F)(F)F)CC1` [Example 197, 2-amino-5-(1-methyl-1H-pyrazol-4-yl)-N-((1S,2S)-2-((4′-((4-methylpiperazin-1-yl)methyl)-3′-(trifluoromethyl)-[1,1′-biphenyl]-4-yl)methoxy)-cyclopentyl)nicotinamide], the IC50 in test [1] was below 10 nM. The GI50 in test [2] is below 100 nM.
In the same order, the values of `Cn1cc(-c2cnc(N)c(C(=O)N[C@H]3CCC[C@@H]3OCc3ccc(-c4ccc(CCN)cc4)cc3)c2)cn1` [Example 145, 2-amino-N-((1S,2S)-2-((4′-(2-aminoethyl)-[1,1′-biphenyl]-4-yl)methoxy)cyclopentyl)-5-(1-methyl-1H-pyrazol-4-yl)nicotinamide] are below 10 nM and above 1000 nM.
With `CCc1cc(CO[C@H]2CNC[C@@H]2NC(=O)c2cc(-c3ccc(C#N)cc3)cnc2N)ccc1C` [Example 400, 2-amino-5-(4-cyanophenyl)-N-((3S,4S)-4-((3-ethyl-4-methylbenzyl)oxy)pyrrolidin-3-yl)nicotinamide], in test [1], the IC50 was below 10 nM. Further, the GI50 in test [2] lay within 500 to 1000 nM.
Regarding `Cn1cc(-c2cnc(N)c(C(=O)N[C@H]3CNC[C@@H]3OCc3ccc(-c4ccc(C(C)(C)N5CCN(CCO)CC5)cc4)cc3)c2)cn1` [Example 440, 2-amino-N-((3S,4S)-4-((4′-(2-(4-(2-hydroxyethyl)piperazin-1-yl)propan-2-yl)-[1,1′-biphenyl]-4-yl)methoxy)pyrrolidin-3-yl)-5-(1-methyl-1H-pyrazol-4-yl)nicotinamide], the IC50 in test [1] is below 10 nM. Besides, the GI50 in test [2] is above 1000 nM.
Consider `CC(c1ccc(-c2ccc(CO[C@H]3CCC[C@@H]3NC(=O)c3cc(-c4ccc(F)nc4)cnc3N)cc2)cc1)N1CCN(C)CC1` (stereo in doubt) [Example 223, 6-amino-6′-fluoro-N-((1S,2S)-2-((4′-((R)-1-(4-methylpiperazin-1-yl)ethyl)-[1,1′-biphenyl]-4-yl)methoxy)cyclopentyl)-[3,3′-bipyridine]-5-carboxamide], for which, in test [1], the IC50 is below 10 nM. Besides, the GI50 in test [2] fell in the range of 100 to 500 nM.
For `Cc1cnc(N)c(C(=O)N[C@H]2CCC[C@@H]2OCc2ccc(-c3ccc(CN4CCN(C)CC4)cc3)cc2)c1` [Example 374, 2-amino-5-methyl-N-((1S,2S)-2-((4′-((4-methylpiperazin-1-yl)-methyl)-[1,1′-biphenyl]-4-yl)methoxy)cyclopentyl)nicotinamide], in that order: below 10 nM and 100 to 500 nM.
Consider `COc1ccc(-c2cnc(N)c(C(=O)N[C@H]3CCC[C@@H]3OCc3ccc(-c4ccc(CN5CCN(C)CC5)cc4)cc3)c2)cc1` [Example 376], for which the IC50 in test [1] was below 10 nM. The GI50 in test [2] was below 100 nM.
With `CN1CCN(Cc2ccc(-c3ccc(CO[C@H]4CCC[C@@H]4NC(=O)c4cc(-c5ccc(N6CCOCC6)cc5)cnc4N)cc3)cc2)CC1` [Example 381, 2-amino-N-((1S,2S)-2-((4′-((4-methylpiperazin-1-yl)methyl)-[1,1′-biphenyl]-4-yl)methoxy)cyclopentyl)-5-(4-morpholinophenyl)nicotinamide], the IC50 in test [1] was below 10 nM. In addition, in test [2], the GI50 is below 100 nM.
As to `CC(c1ccc(-c2ccc(CO[C@H]3CCC[C@@H]3NC(=O)c3cc(-c4cncc(F)c4)cnc3N)cc2)cc1)N1CCN(CCO)CC1` (stereo partly drawn) [Example 236, 6-amino-5′-fluoro-N-((1S,2S)-2-((4′-(1-(4-(2-hydroxyethyl)-piperazin-1-yl)ethyl)-[1,1′-biphenyl]-4-yl)methoxy)cyclopentyl)-[3,3′-bipyridine]-5-carboxamide], the IC50 in test [1] was below 10 nM. Besides, the GI50 in test [2] was below 100 nM.
As to `Cn1cc(-c2cnc(N)c(C(=O)N[C@H]3CCC[C@@H]3OCc3ccc(-c4ccc(CO)cc4)cc3)c2)cn1` [Example 142, 2-amino-N-((1S,2S)-2-((4′-(hydroxymethyl)-[1,1′-biphenyl]-4-yl)methoxy)cyclopentyl)-5-(1-methyl-1H-pyrazol-4-yl)nicotinamide], the IC50 in test [1] was below 10 nM. The GI50 in test [2] fell in the range of 100 to 500 nM.
In the case of `Cn1cc(-c2cnc(N)c(C(=O)N[C@H]3COC[C@@H]3OCc3ccc(-c4ccc(C(C)(C)N5CCN(CCO)CC5)cc4)cc3)c2)cn1` [Example 453, 2-amino-N-((3S,4R)-4-((4′-(2-(4-(2-hydroxyethyl)piperazin-1-yl)-propan-2-yl)-[1,1′-biphenyl]-4-yl)methoxy)tetrahydrofuran-3-yl)-5-(1-methyl-1H-pyrazol-4-yl)nicotinamide], the IC50 in test [1] was below 10 nM. Further, the GI50 in test [2] was 100 to 500 nM.
As for `CCc1ccc(-c2ccc(CO[C@H]3CCC[C@@H]3NC(=O)c3cc(-c4cnn(C)c4)cnc3N)cc2)cc1` [Example 153, 2-amino-N-((1S,2S)-2-((4′-ethyl-[1,1′-biphenyl]-4-yl)-methoxy)cyclopentyl)-5-(1-methyl-1H-pyrazol-4-yl)nicotinamide], the IC50 in test [1] is below 10 nM. Besides, in test [2], the GI50 fell in the range of 500 to 1000 nM.
As for `CC1CCN(Cc2ccc(-c3cnc(N)c(C(=O)N[C@H]4CCC[C@@H]4OCc4ccc(-c5ccc(CN6CCN(C)CC6)cc5)cc4)c3)cc2)CC1` [Example 378, 2-amino-N-((1S,2S)-2-((4′-((4-methylpiperazin-1-yl)methyl)-[1,1′-biphenyl]-4-yl)methoxy)cyclopentyl)-5-(4-((4-methylpiperidin-1-yl)methyl)phenyl)-nicotinamide], in test [1], the IC50 is below 10 nM. In addition, the GI50 in test [2] is below 100 nM.
Regarding `CN1CCN(Cc2ccc(-c3ccc(CO[C@H]4CCC[C@@H]4NC(=O)c4cc(-c5cnn(C6CCOCC6)c5)cnc4N)cc3)cc2)CC1` [Example 380], the IC50 in test [1] is below 10 nM. Further, the GI50 in test [2] was below 100 nM.
As to `CCc1cc(CO[C@H]2CNC[C@@H]2NC(=O)c2cc(-c3ccccc3)cnc2N)ccc1C` [Example 394, 2-amino-N-((3S,4S)-4-((3-ethyl-4-methylbenzyl)oxy)pyrrolidin-3-yl)-5-phenylnicotinamide], in test [1], the IC50 was below 10 nM. For the same compound, the GI50 in test [2] lay within 500 to 1000 nM.
On to `Cn1cc(-c2cnc(N)c(C(=O)N[C@H]3CCC[C@@H]3OCc3ccc(-c4ccc(CN5CCC(O)CC5)cc4)cc3)c2)cn1` [Example 180, 2-amino-N-((1S,2S)-2-((4′-((4-hydroxypiperidin-1-yl)methyl)-[1,1′-biphenyl]-4-yl)methoxy)cyclopentyl)-5-(1-methyl-1H-pyrazol-4-yl)nicotinamide], for which the IC50 in test [1] is below 10 nM. Also, in test [2], the GI50 is above 1000 nM.
In the case of `CN1CCN(Cc2ccc(-c3ccc(CO[C@H]4CCC[C@@H]4NC(=O)c4cc(-c5cc(F)nc(F)c5)cnc4N)cc3)cc2)CC1` [Example 384], in test [1], the IC50 was below 10 nM. The concentration for 50% growth inhibition (GI50) in test [2] is below 100 nM.
For `CCc1cc(CO[C@H]2CN(C)C[C@@H]2NC(=O)c2cc(-c3cnn(C4CCN(C)CC4)c3)cnc2N)ccc1C` [Example 433, 2-amino-N-((3S,4S)-4-((3-ethyl-4-methylbenzyl)oxy)-1-methylpyrrolidin-3-yl)-5-(1-(1-methylpiperidin-4-yl)-1H-pyrazol-4-yl)nicotinamide], the IC50 in test [1] was below 10 nM. For the same compound, in test [2], the GI50 lay within 100 to 500 nM.
In the case of `CC(c1ccc(-c2ccc(CO[C@H]3CCC[C@@H]3NC(=O)c3cc(F)cnc3N)cc2)cc1)N1CCN(C)CC1` (stereo partly drawn) [Example 232, 2-amino-5-fluoro-N-((1S,2S)-2-((4′-(1-(4-methylpiperazin-1-yl)-ethyl)-[1,1′-biphenyl]-4-yl)methoxy)cyclopentyl)nicotinamide], the IC50 in test [1] was below 10 nM. For the same compound, the GI50 in test [2] lay in the range of 500 to 1000 nM.
Turning to `Cn1cc(-c2cnc(N)c(C(=O)N[C@H]3COC[C@@H]3OCc3ccc(-c4ccc(CN5CCN(CCO)CC5)c(C(F)(F)F)c4)cc3)c2)cn1` [Example 452, 2-amino-N-((3S,4R)-4-((4′-((4-(2-hydroxyethyl)piperazin-1-yl)-methyl)-3′-(trifluoromethyl)-[1,1′-biphenyl]-4-yl)methoxy)tetrahydrofuran-3-yl)-5-(1-methyl-1H-pyrazol-4-yl)nicotinamide], the IC50 in test [1] is below 10 nM. Further, the GI50 in test [2] is below 100 nM.
Turning to `CC1CN[C@@H](C)CN1Cc1ccc(-c2ccc(CO[C@H]3CCC[C@@H]3NC(=O)c3cc(-c4cnn(C)c4)cnc3N)cc2)cc1` (stereo partly drawn) [Example 191, 2-amino-N-((1S,2S)-2-((4′-((trans-2,5-dimethylpiperazin-1-yl)methyl)-[1,1′-biphenyl]-4-yl)methoxy)cyclopentyl)-5-(1-methyl-1H-pyrazol-4-yl)nicotinamide], the IC50 in test [1] was below 10 nM. Further, the GI50 in test [2] lay in the range of 100 to 500 nM.
For the compound `C[C@@H]1CN(Cc2ccc(-c3ccc(CO[C@H]4CCC[C@@H]4NC(=O)c4cc(-c5cnn(C)c5)cnc4N)cc3)cc2)CCN1C` [Example 186, 2-amino-N-((1S,2S)-2-((4′-(((R)-3,4-dimethylpiperazin-1-yl)-methyl)-[1,1′-biphenyl]-4-yl)methoxy)cyclopentyl)-5-(1-methyl-1H-pyrazol-4-yl)-nicotinamide], the IC50 in test [1] was below 10 nM. Further, in test [2], the GI50 is below 100 nM.
